# Source: patent US10874638B2, “Methods and compositions for modulating hormone levels” (priority 2014, dated 2020)
# What was measured:
# [1] = system: intact cynomolgus male and female monkeys; experiment: Intact cynomolgus monkey model; type: in vivo; details: for serum cholesterol decrease, of the corresponding Day −3 values: males and females
# Protocol: Intact cynomolgus male and female monkeys are used to assess of the effects of the compositions provided herein or the individual SERM or SARM compounds on hypothalamic-pituitary-gonadal axis and lipid profile. All animals are dosed via oral or nasol gavage once daily for consecutive days with either vehicle or testing articles of different doses. The first day of dosing is designated Day 1 for all animals. Blood samples are collected for analysis of LH, FSH, T, Estrodiol, total cholesterol, triglycerides, cortisol, and coagulation parameters included prothrombin time (PT) and activated partial thromboplastin time on Days −3 and end of the study.
# In this model, Compound 2 was dosed at 0, 5, 50, 150, and 450 mg/kg/day for 14 days. […] In a separate study, the compound was dosed at 0, 3, 10, 30, 120, and 500 mg/kg/day for 30 days. […] Serum testosterone was suppressed in males as indicated by lower 75th, 50th, and 25th percentile values in samples from treated monkeys than vehicle controls.
# In this model, Compound 1 was dosed at 0, 1, 5, and 15 mg/kg/day for 3 months.
# healthy young men = details: cited from earlier work
# [2] = system: orchidectomized male Sprague-Dawley rat; experiment: Orchidectomized mature male rat model
# [3] = system: ovariectomized mature female rats; experiment: Ovariectomized mature female rat model; type: in vivo; details: restoration mode
# Protocol: Ovariectomized mature female rats are used to characterize primarily bone activity of the compositions provided herein or the individual SERM or SARM compounds. A sham group is used as control. The model can be run in either maintenance mode where the animals are dosed one day after the ovariectomy or restoration mode where the animals are dosed seven to eight weeks after the surgery. The rats are scanned by dual energy x-ray absorptiometry and sorted into experimental groups based upon femoral bone mineral content (BMC). Three dosages of testing compositions/compounds are administered orally once a day for 4, 8, or 12 weeks and estradiol and testosterone are administered subcutaneously to the reference groups. Animals received subcutaneous injections of fluorochrome markers for bone histomorphometric analysis. Alizarian Red S was prepared as a 3% solution and given at a dose of 30 mg/kg at the time of the baseline scan. Calcein was administered 10 days and 3 days prior to necropsy.
# Approximately 24 hours after the last dose, blood is collected and the gastrocnemius muscle, plantaris muscle, uterus, clitoral glands, clitoris and inguinal fat pads were isolated, blotted and weighed individually. The left femur and lumbar vertebra L5 are wrapped in saline-soaked gauze and stored at −20° C. for biochemical analysis. The right femur and lumbar vertebrae L3-L4 are collected and stored in 70% ethanol for histomorphometry. The right tibia is collected in formalin for histological analysis. The left tibia is collected on dry ice and stored at −20° C. for measurement of alkaline phosphatase activity.
# BMC, bone mineral density (BMD) and bone length are measured by pDEXA on an entire femur. The coefficient of variation for repeated measurement of the isolated femur is less than 0.4% for the BMC and the BMD measurements. […] Serum osteocalcin, a marker for bone turnover, and alkaline phosphatase derived from the tibial periosteum are also measured. Whole femurs are collected for biomechanical analysis and thawed at room temperature prior to testing. Peak load and peak displacement are measured directly from the load cell and the crosshead, respectively. Stiffness is calculated from the slope of the linear region of the load/displacement curve. Lumbar vertebra L5 is also measured in the mechanical testing for bone strength.
# Bone histomorphometry is performed to indicate growth of the new bone during the study. The section from the lumbar vertebral bodies is used for histomorphometric indices of cancellous bone, while the sections of the femur mid-shafts are used for histomorphometric indices of cortical bone.
# Body weight, gastrocnemius weight and plantaris weight changes are measured indicating anabolic activity of the testing compositions/compounds on skeletal muscle. Inguinal fat pad weight is used as a representative fat pad to assess the effects of the testing compounds on body fat. Clitoral gland and clitoral weights are measured to assess the virilizing effect of drugs.
# In the maintenance node of this model, (5R,6S)-6-phenyl-5-[4-(2-pyrrolidin-1-ylethoxy)phenyl]-5,6,7,8-tetrahydronaphthalen-2-ol (Compound 1) was dosed daily at 0 (sham), 0 (OVX), 0.01, 0.05, and 0.25 mg/kg for 8 weeks and 17α-ethynylestradiol was dosed at 0.03 mg/kg/day. […] Micro-computerized tomography (uCT) measured the density and connectivity of the trabecular bone in the femur and pQCT measured at the distal femur.
# In the restoration mode of this osteopenic female rat model, 4-(2(R)-(1(S)-hydroxyl-2,2,2-trifluoroethyl)-pyrrolidinyl)-2-trifluoromethylbenzonitrile (Compound 2, Formula I, R^1═CF3, R^2═R^3═H) was dosed at 0 (sham), 0 (OVX), 0.03, 0.3, and 3 mg/kg orally for 12 weeks. […] Compound 2 suppressed cancellous bone turnover while increasing trabecular bone volume and increasing bone mineral density at the lumbar spine.
# In the same experiment of Compound 2, another SARM compound, ostarine, was dosed at 0.03, 0.3, and 3 mg/kg/day orally for 12 weeks.
# [4] = females, 3 to 500 mg/kg/day for 30 days
# [5] = 0.03, 0.3, 3 mg/kg orally for 12 weeks
compound,measurement,setting,value
"N#Cc1ccc(N2CCC[C@@H]2[C@H](O)C(F)(F)F)cc1C(F)(F)F [Compound 2, 4-(2(R)-(1(S)-hydroxyl-2,2,2-trifluoroethyl)-pyrrolidinyl)-2-trifluoromethylbenzonitrile]",triglycerides,"[1]; Day 14, 5 to 450 mg/kg/day for 14 days",without dose dependent changes
same,"serum cholesterol decrease, of the corresponding Day −3 values","[1]; Day 14, 5 mg/kg/day for 14 days",71%
same,"serum cholesterol decrease, of the corresponding Day −3 values","[1]; Day 14, 50 mg/kg/day for 14 days",81%
same,"serum cholesterol decrease, of the corresponding Day −3 values","[1]; Day 14, 150 mg/kg/day for 14 days",79%
same,"serum cholesterol decrease, of the corresponding Day −3 values","[1]; Day 14, 450 mg/kg/day for 14 days",84%
same,effect on the hypothalamic-pituitary-gonadal axis,"[1]; female and male monkeys, 3 to 500 mg/kg/day for 30 days",suppressive effect
same,serum FSH,[1]; [4],significantly suppressed
same,serum estradiol,[1]; [4],significantly suppressed
same,serum testosterone,"[1]; males, lower 75th, 50th, 25th percentile values than vehicle controls, 30 days",suppressed
same,serum FSH,"[1]; sentence follows the male results, 30 days",not significantly altered
same,safety and pharmacokinetic profiles,healthy young men,favorable safety and pharmacokinetic profiles
same,exposure versus dose,"[2]; 0.03 to 100 mg/kg/day for 14 days, rat",dose proportional exposure
same,efficacy (relative to sham) in sex accessory and sebaceous glands,[2]; at doses that maintained levator ani weights at sham equivalent levels,lower efficacy
same,serum LH,[2]; at high doses,suppressed serum LH below sham-equivalent levels
same,AUC24,"[2]; at the dose of 2 mg/kg/day, rat",0.2
same,activity in musculoskeletal endpoints,"[2]; restoration mode, 0.03 to 100 mg/kg/day for 14 days",positive activity
same,dose reducing the elevated LH levels in castrate rats,"[2]; restoration mode, 14 days",≥ 10 mg/kg/day
same,dose that maintained levator ani weight at sham-equivalent levels,"[2]; restoration mode, 14 days",2 mg/kg/day
same,tissue selectivity toward the muscle endpoint,"[2]; restoration mode, 14 days",tissue selective activity
same,"activity on the clitoral gland, clitoris or uterus relative to testosterone",[3]; 0.3 mg/kg/day dose,reduced activity
same,efficacy on muscle and bone compared with testosterone,[3]; 0.3 mg/kg/day dose,more efficacious
same,bone mineral density at the lumbar spine,[3]; [5],increasing
same,cancellous bone turnover,[3]; [5],suppressed
same,"cortical bone mass, density, strength, stiffness and periosteal bone formation rates",[3]; [5],significantly increased
same,"gastrocnemius muscle weight, plantaris muscle weight and body weight",[3]; [5],increased
same,inguinal fat pad weight,[3]; [5],without affecting
same,trabecular bone volume,[3]; [5],increasing
